Assays:
[1] = target: T1, 5-hydroxytryptamine receptor 1A (Rattus norvegicus, UniProt P19327); assay: Binding affinity towards 5-hydroxytryptamine 1A receptor using [3H]8-OH-DPAT in rat hippocampus; assay type: tissue-based
T1 sequence (P19327 whole entry): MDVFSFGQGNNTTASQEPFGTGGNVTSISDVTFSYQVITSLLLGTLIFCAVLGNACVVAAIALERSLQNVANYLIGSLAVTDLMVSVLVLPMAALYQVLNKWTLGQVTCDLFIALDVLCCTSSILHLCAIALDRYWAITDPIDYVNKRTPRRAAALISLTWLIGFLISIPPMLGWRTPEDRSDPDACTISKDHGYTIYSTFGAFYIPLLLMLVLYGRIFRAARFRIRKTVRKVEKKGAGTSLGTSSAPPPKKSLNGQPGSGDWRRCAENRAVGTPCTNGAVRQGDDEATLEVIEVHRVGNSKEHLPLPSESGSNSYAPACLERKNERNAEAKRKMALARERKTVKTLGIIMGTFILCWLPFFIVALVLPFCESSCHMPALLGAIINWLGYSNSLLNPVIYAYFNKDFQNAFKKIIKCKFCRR

D(2) dopamine receptor = D(2) dopamine receptor (Homo sapiens, UniProt P14416)
D(2) dopamine receptor, sequence (P14416 whole entry): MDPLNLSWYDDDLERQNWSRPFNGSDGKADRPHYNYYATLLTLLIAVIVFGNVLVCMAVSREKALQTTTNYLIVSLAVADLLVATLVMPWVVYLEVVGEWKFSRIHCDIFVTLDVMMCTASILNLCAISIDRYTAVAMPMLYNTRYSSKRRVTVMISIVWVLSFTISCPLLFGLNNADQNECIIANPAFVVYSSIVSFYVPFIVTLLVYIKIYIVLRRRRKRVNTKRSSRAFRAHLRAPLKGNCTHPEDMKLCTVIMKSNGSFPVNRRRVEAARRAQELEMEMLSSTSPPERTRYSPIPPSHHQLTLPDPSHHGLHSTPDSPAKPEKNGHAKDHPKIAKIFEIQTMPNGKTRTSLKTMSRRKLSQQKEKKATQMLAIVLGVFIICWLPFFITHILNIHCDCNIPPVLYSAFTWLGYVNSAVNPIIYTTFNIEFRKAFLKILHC

D(3) dopamine receptor = D(3) dopamine receptor (Homo sapiens, UniProt P35462); assay: biochemical
D(3) dopamine receptor, sequence (P35462 whole entry): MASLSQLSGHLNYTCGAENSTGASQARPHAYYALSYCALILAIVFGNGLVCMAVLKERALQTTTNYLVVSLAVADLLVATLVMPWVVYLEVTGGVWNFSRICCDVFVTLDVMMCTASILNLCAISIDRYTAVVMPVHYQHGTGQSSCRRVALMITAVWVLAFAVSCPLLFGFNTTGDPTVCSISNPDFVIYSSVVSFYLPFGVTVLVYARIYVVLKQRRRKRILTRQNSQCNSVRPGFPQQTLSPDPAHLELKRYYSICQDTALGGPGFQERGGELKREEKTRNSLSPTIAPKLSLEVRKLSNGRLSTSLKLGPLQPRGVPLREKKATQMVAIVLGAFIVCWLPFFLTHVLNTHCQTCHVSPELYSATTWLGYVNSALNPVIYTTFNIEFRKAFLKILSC

D(1A) dopamine receptor = D(1A) dopamine receptor (Rattus norvegicus, UniProt P18901); assay: Binding affinity towards D1 receptor using [3H]-SCH- 23390 in rat striatal tissue; assay type: tissue-based, Striatum
D(1A) dopamine receptor, sequence (P18901 whole entry): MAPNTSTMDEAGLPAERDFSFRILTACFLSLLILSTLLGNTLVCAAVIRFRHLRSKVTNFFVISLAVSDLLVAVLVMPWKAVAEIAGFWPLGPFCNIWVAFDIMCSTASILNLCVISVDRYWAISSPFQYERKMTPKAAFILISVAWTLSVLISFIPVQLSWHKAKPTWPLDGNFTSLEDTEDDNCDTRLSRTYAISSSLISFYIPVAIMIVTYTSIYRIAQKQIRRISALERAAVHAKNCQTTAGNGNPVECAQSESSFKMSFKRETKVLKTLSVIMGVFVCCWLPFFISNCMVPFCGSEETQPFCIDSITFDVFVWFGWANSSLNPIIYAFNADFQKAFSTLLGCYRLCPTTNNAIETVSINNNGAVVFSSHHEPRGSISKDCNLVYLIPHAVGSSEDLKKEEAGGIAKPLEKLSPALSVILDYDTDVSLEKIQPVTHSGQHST

[2] = target: 5-hydroxytryptamine receptor 2A (Bos taurus) (UniProt Q75Z89); assay: Binding affinity towards 5-hydroxytryptamine 2 receptor
5-hydroxytryptamine receptor 2A (Bos taurus), sequence (Q75Z89 whole entry): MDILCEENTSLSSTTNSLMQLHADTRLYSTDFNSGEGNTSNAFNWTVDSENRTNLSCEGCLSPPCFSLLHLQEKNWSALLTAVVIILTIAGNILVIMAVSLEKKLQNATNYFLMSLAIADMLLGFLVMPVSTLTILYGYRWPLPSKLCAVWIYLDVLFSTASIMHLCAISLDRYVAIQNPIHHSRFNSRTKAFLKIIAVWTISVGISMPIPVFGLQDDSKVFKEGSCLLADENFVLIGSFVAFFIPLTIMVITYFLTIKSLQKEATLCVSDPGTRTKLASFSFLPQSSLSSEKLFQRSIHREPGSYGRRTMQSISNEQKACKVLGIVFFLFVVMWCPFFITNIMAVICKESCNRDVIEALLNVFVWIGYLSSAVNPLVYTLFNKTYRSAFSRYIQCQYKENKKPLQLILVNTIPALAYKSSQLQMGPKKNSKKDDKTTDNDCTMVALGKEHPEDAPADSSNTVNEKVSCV

[3] = target: Serotonin 3 (5-HT3) receptor; assay: Binding affinity towards 5-hydroxytryptamine 3 receptor; assay type: protein-complex assay
[4] = target: T2, Adrenergic receptor alpha-1 (Rattus norvegicus, UniProt P15823+P23944+P43140); assay: Binding affinity towards Alpha-1 adrenergic receptor using [3H]prazosin in rat heart
T2 sequence (P15823 whole entry): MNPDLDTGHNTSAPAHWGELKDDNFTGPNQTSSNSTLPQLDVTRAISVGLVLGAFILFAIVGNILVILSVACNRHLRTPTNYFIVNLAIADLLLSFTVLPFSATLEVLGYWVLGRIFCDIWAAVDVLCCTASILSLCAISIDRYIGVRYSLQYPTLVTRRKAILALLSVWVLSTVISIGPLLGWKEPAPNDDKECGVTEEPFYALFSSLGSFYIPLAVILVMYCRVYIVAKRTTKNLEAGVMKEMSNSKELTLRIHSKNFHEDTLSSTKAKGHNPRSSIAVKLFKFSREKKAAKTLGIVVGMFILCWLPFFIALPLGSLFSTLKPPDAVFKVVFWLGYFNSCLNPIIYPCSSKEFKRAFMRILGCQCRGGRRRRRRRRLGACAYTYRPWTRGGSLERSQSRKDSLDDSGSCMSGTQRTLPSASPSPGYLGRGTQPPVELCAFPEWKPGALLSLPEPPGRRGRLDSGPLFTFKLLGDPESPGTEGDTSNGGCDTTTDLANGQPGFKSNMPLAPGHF
T2 sequence (P23944 whole entry): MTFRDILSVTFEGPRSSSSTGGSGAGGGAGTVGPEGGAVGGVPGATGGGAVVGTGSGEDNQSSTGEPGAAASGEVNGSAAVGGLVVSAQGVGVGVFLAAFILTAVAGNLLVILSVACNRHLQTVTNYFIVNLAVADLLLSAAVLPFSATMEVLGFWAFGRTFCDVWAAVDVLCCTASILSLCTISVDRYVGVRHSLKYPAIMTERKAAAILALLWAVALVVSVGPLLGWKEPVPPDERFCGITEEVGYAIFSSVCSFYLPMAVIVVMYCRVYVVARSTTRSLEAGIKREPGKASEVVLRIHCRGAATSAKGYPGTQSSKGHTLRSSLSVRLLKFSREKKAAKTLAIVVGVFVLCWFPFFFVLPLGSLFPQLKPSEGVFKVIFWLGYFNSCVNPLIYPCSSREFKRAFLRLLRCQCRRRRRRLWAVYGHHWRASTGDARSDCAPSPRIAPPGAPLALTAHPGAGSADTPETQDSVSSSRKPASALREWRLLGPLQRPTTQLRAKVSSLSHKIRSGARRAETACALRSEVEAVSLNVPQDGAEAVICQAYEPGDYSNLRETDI
T2 sequence (P43140 whole entry): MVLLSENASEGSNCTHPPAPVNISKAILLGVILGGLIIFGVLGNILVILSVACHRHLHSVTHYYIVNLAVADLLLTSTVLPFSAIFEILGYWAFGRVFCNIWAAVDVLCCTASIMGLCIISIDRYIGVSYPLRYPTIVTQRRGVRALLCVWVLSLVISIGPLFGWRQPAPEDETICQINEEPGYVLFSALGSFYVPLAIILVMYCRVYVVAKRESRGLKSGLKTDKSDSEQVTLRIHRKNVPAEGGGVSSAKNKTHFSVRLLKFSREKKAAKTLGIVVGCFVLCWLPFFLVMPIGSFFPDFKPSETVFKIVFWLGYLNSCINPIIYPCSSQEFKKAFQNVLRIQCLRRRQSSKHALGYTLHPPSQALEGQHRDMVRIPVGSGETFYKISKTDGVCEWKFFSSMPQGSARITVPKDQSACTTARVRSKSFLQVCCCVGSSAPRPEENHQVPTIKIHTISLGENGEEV

D(4) dopamine receptor [5] = target: T3, D(4) dopamine receptor (Homo sapiens, UniProt P21917); assay: Binding affinity towards Dopamine D4 receptor
T3 sequence (P21917 whole entry): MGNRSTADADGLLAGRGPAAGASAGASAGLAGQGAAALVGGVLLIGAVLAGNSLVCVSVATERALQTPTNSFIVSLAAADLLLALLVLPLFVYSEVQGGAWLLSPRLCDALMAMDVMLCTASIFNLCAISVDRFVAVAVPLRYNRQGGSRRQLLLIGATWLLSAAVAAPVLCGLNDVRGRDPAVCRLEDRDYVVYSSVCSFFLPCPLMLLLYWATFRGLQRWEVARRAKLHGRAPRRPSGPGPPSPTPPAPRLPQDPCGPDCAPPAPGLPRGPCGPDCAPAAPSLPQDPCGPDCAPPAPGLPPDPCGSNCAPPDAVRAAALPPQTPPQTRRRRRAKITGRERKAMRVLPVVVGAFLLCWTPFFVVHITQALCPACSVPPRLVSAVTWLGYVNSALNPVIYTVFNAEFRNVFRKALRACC

Rattus norvegicus [6] = assay: Selectivity for mesolimbic over nigrostriatal dopamine system in rat brain as substania nigra zona reticulata infusion of muscimol-induced locomotor activity (LMA) by sc dose; assay type: functional
Rattus norvegicus [7] = assay: Selectivity for mesolimbic over nigrostriatal dopamine system in rat brain as ventral tegmental area infusion of muscimol induced locomotor activity (LMA) by sc dose; assay type: functional
[8] = target: Adrenergic receptor alpha-1 (Homo sapiens) (UniProt P35348+P25100+P35368); assay: Binding affinity towards Alpha-1 adrenergic receptor; assay type: protein assay
[9] = target: T2, Adrenergic receptor alpha-1; assay: Compound was evaluated for binding affinity towards Alpha-1 adrenergic receptor using [3H]prazosin in rat heart
D(4) dopamine receptor [10] = target: T3, D(4) dopamine receptor; assay: Binding affinity towards Chinese hamster ovary cells transfected with human D4 receptor using [3H]spiperone; assay type: cell-based

Ki [1] | Ki (D(2) dopamine receptor) | Ki (D(3) dopamine receptor) | Ki (D(1A) dopamine receptor) | Log Ki [9] | SMILES | other results
126 nM | 398 nM | 6.31 nM | – | – | O=C(NCCCCN1CCN(c2ccccc2)CC1)c1ccc(Br)cc1 | –
3.16 nM | 39.8 nM | 0.316 nM | 398 nM | – | COc1ccccc1N1CCN(CCCCNC(=O)c2ccc(-c3ccc(C(C)=O)cc3)cc2)CC1 | pKB [2]: < 5; Log Ki [3]: > -5; Log Ki [4]: -7.9; Ki (D(4) dopamine receptor [5]): 63.1 nM; ED50 (Rattus norvegicus [6]): > 10 mg/kg; ED50 (Rattus norvegicus [7]): 0.3 mg/kg; pKB [8]: 7.8
– | – | – | – | – | O=C(CCCN1CCC(O)(c2ccc(Cl)cc2)CC1)c1ccc(F)cc1 [HALOPERIDOL] | ED50 (Rattus norvegicus [6]): 0.05 mg/kg
12.6 nM | 20 nM | 0.2 nM | 100 nM | -8 | COc1ccccc1N1CCN(CCCCNC(=O)c2ccc(-c3ccc(N)cc3)cc2)CC1 | –
12.6 nM | 39.8 nM | 0.501 nM | 501 nM | -7.9 | COc1ccccc1N1CCN(CCCCNC(=O)c2ccc(Br)cc2)CC1 | Ki (D(4) dopamine receptor [10]): 50.1 nM
– | – | – | – | – | CN1CCN(C2=Nc3cc(Cl)ccc3Nc3ccccc32)CC1 [CLOZAPINE] | ED50 (Rattus norvegicus [7]): 0.002 mg/kg
251 nM | 100 nM | 3.16 nM | – | -7.5 | COc1ccc(OC)c(N2CCN(CCCCNC(=O)c3ccc(Br)cc3)CC2)c1 | –
20 nM | 25.1 nM | 0.316 nM | 158 nM | -7.9 | COc1ccccc1N1CCN(CCCCNC(=O)c2ccc(-c3ccc(S(C)(=O)=O)cc3)cc2)CC1 | –

From ChEMBL document CHEMBL1128113, “A novel series of arylpiperazines with high affinity and selectivity for the dopamine D3 receptor” (Bioorg Med Chem Lett, 1995)
